We go through 4 molecules from patent US20050004126A1 (priority 2001, published 2005).

Data set [1] has as its target MMP-13CD (catalytic domain of collagenase 3) (Homo sapiens, UniProt P45452). The data set can be described thus: Thiopeptolide hydrolysis assay, MMP-13.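 Note: inhibition of enzymatic thiopeptolide substrate cleavage (100 µM) in pH 6.0 MES buffer with CaCl2 and DTNB, comparing hydrolysis with versus without inhibitor.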 As to conditions: IC50 μM, Table V; MMP-13.
The target in data set [2] is MMP-13 (Homo sapiens, UniProt P45452). As to conditions: cited from earlier work.
The test system of data set [3] is other MMP enzymes. As to conditions: Chen et al.; cited from earlier work.

SMILES strings stand for the structures.

One may read the melting point as the temperature of the solid-liquid transition. One may read the IC50 as the concentration at which inhibition is half-maximal. A high value points to weaker potency.

`COC(=O)c1ccc(Cn2c(=O)c3cc(C(=O)NCc4ccc(OC)cc4)ccc3n3cnnc23)cc1` [Synthesis Example 59, Methyl 4-{7-[(4-methoxybenzyl)-carbamoyl]-5-oxo-5H-[1,2,4]triazolo[4,3-a]quinazol-4-ylmethyl}benzoate]: the melting point was 210 °C. Besides, in data set [1], half-maximal inhibition (IC50) required 0.0026 µM.

In the case of `O=C(O)c1ccc(Cn2c(=O)c3cc(C(=O)NCc4ccc5c(c4)OCO5)ccc3n3cnnc23)cc1` [Synthesis Example 61, 4-{7-[(1,3-Benzodioxol-5-ylmethyl)-carbamoyl]-5-oxo-5H-[1,2,4]triazolo[4,3-a]quinazol-4-ylmethyl}benzoic acid], the melting point was 235 °C. This molecule also yielded an IC50 in data set [1] of 0.0009 µM.

For the molecule `Cc1cc(C)c(N(Cc2ccccc2)S(=O)(=O)c2ccc(OCCNC(=O)c3cc4ccccc4o3)cc2)c(C(=O)NO)c1` [WAY-170523], the “selectivity for MMP-13” value in data set [2] (as reported by Chen et al.) is “selective inhibitor of MMP-13”.

In the case of `O=C(NCCCCN1CCOCC1)c1cc2ccccc2o1` [compound of the formula I], in data set [2] (high throughput screening hit, Chen et al.), the “inhibition against MMP-13” value is “weak inhibition”. The “activity against other MMP enzymes” value in data set [3] was “inactive”.
